Data set [1] deals with P. falciparum 3D7 (CQ-susceptible), erythrocytic stage. The data set is described as follows: Antiplasmodial HRP2 assay, Pf3D7. The class given is cell-based, Plasmodium falciparum. The following applies: read-out: IC50 Pf3D7. The procedure: (§1) Method used to evaluate the antiplasmodial activity of quinoline–benzimidazole hybrids against two P. falciparum strains, chloroquine-sensitive (Pf3D7) and chloroquine-resistant (PfDd2), was previously described. […] Chloroquine was used as a positive control.
(§2) In brief, 96-well plates were pre-coated with the tested compounds at 1:3 dilution before ring-stage parasites were added to the complete culture medium at a hematocrit of 1.5% and a parasitemia of 0.05%. […] All compounds were analyzed in duplicate in at least two independent experiments. The IC50 was determined by nonlinear regression analysis of the logarithmic concentration-response curves using the drc package v3.0-1 of R v4.1.0 [56].

The test system of data set [2] is P. falciparum Dd2 (multiresistant), erythrocytic stage. The data set is described as follows: Antiplasmodial HRP2 assay, PfDd2. Type of data set: cell-based, Plasmodium falciparum. The following applies: read-out: IC50 PfDd2. The procedure: as §1, §2
The subject of data set [3] is MRC-5 (human fetal lung fibroblasts). Description: Antiproliferative MTT assay, MRC-5. The class given is cell-based. To be noted: 72 h, mean ± SD of three experiments. Here is the method:
(§3) The effect of the new synthesized compounds was tested on five human tumor cell lines, HeLa (human cervical adenocarcinoma; from ATCC), CaCo-2 (human colorectal adenocarcinoma), HL-60 (acute promyelocytic leukemia), HuT78 (T-cell lymphoma), and THP-1 (acute monocytic leukemia), as well as one non-tumor cell line, MRC-5 (human fetal lung fibroblasts). The MRC-5 cells were used between 24 and 26 passages. The cells were cultured in two different types of media: DMEM (Gibco Thermo Fisher Scinetific Inc., Runcorn, UK) and RPMI 1640 (Gibco, Thermo Fisher Scinetific Inc., UK). Both media were supplemented with 2 mM glutamine, fetal bovine serum (10%; heat inactivated), and antibiotics (100 U penicillin and 0.1 mg streptomycin). RPMI 1640 was additionally supplemented with 10 mM HEPES and 1 mM sodium pyruvate. Cells growing in a monolayer were cultured in DMEM, while cells growing in suspension were cultured in RPMI 1640. Cells were grown in humidified atmosphere under the conditions of 37 °C/5% CO2 gas in a CO2 incubator (IGO 150 CELLlife^TM, JOUAN, Thermo Fisher Scientific, Waltham, MA, USA).
(§4) Growth-inhibitory activity was assessed using a slightly modified procedure based on the National Cancer Institute’s protocol. Briefly, cells were seeded in 96-well microtiter plates and incubated for 24 h. They were then treated with 10^−7 to 10^−4 M concentrations of the tested compounds for an additional 72 h. After the treatment period, the effects of the tested compounds on the growth rate of the cells were examined using the MTT assay. Absorbance was measured at 595 nm using a microplate reader. The IC50 value, which represents a 50% inhibition of cell growth, and QC calculation were performed using the GraphPadPrism software (La Jolla, USA), v. 5.03. and Excel software, Office 365. The selectivity index was calculated according to the following formula: SI=IC50 value of normal cell line/IC50 value of cancer cell line
(§5) The effect of each concentration was analyzed by plotting the logarithm of the concentration of the evaluated compound against the corresponding percentage inhibition value using least squares.
Background: Tetrazolium assays rely on reduction of a dye to a coloured formazan, in cell work by metabolically active cells.

In data set [4] the test system is HeLa (human cervical adenocarcinoma). The data set is described as follows: Antiproliferative MTT assay, HeLa. To be noted: 72 h, mean ± SD of three experiments. Type of data set: cell-based. Here is the method: as §3, §4, §5
The test system of data set [5] is CaCo-2 (human colorectal adenocarcinoma). The data set is described as follows: Antiproliferative MTT assay, CaCo-2. Type of data set: cell-based. To be noted: mean ± SD of three experiments. The procedure: as §3, §4, §5
For data set [6], the system named is THP-1 (acute monocytic leukemia). The data set is described as follows: Antiproliferative MTT assay, THP-1. Type of data set: cell-based, human. The following applies: mean ± SD of three experiments. The procedure:
as §3, §4, §5

Data set [7] relates to HuT78 (T-cell lymphoma). Description: Antiproliferative MTT assay, Hut78. The class given is cell-based, human. To be noted: mean ± SD of three experiments. The procedure:
as §3, §4, §5

In data set [8] the test system is HL-60 (acute promyelocytic leukemia). Description: Antiproliferative MTT assay, HL-60. The class given is cell-based, human. The following applies: mean ± SD of three experiments. The procedure:
as §3, §4, §5

Setting [9] is: Homo sapiens, MRC5, non-tumor cell line.
The mark [10] stands for this setting: Plasmodium falciparum, 3D7, 72 h, chloroquine-sensitive strain, three days incubation, HRP2-ELISA, mean ± SD, n ≥ 2.
Where [11] appears, read: Plasmodium falciparum, DD2, 72 h, chloroquine-resistant strain, three days incubation, HRP2-ELISA, mean ± SD, n ≥ 2.

What is called melting point is the temperature, or range, at which the solid turns liquid. What is called IC50 is the concentration that gives 50% inhibition.

Where a name gives a salt, the structure may show the parent alone. Read-outs that look alike come from different tables or passages of the source. Some results are limits rather than exact numbers.

Turning to `N=C(NC1CCCC1)c1ccc2nc(-c3ccc(OCCNc4ccnc5cc(Cl)ccc45)c(Br)c3)[nH]c2c1` (as salt: hydrochloride) [Compound 11d, 2-{3-bromo-4-[2-(7-chloroquinolin-4-ylamino)ethoxy]phenyl}-N-cyclopentyl-1H-benzo[d]imidazole-5(6)-carboximidamide trihydrochloride], the melting point was 234 °C (dec.).

On to `COc1cc(-c2nc3ccc(C(=N)NC4CCCC4)cc3[nH]2)ccc1OCCNc1ccnc2cc(Cl)ccc12` (as salt: hydrochloride) [Compound 12d, 2-{3-methoxy-4-[2-(7-chloroquinolin-4-ylamino)ethoxy]phenyl}-N-cyclopentyl-1H-benzo[d]imidazole-5(6)-carboximidamide trihydrochloride], for which the melting point was 226 °C (dec.).

Consider `N=C(NC1CCCC1)c1ccc2nc(-c3ccc(OCCCNc4ccnc5cc(Cl)ccc45)cc3)[nH]c2c1` (as salt: hydrochloride) [Compound 13d], for which the melting point is > 275 °C.

Consider `N=C(NC1CCCC1)c1ccc2nc(-c3ccc(OCCCNc4ccnc5cc(Cl)ccc45)c(Br)c3)[nH]c2c1` (as salt: hydrochloride) [Compound 14d], for which the melting point was 265 °C (dec.).

Turning to `CCN(CC)CCCC(C)Nc1ccnc2cc(Cl)ccc12` (stereo not shown) [CQ, Chloroquine, reference compound], the IC50 amounted to 0.0111 ± 0.0005 µM in data set [1] (Plasmodium falciparum, 3D7, 72 h) and 0.36 ± 0.0272 µM in [2] (Plasmodium falciparum, DD2, 72 h).

Consider `N=C(NC1CCCC1)c1ccc2nc(-c3ccc(OCCNc4ccnc5cc(Cl)ccc45)c(Br)c3)[nH]c2c1` [Compound 11d, 2-{3-bromo-4-[2-(7-chloroquinolin-4-ylamino)ethoxy]phenyl}-N-cyclopentyl-1H-benzo[d]imidazole-5(6)-carboximidamide trihydrochloride], for which the IC50 in data set [3] (setting [9]) is > 100 µM; in data set [4] (Homo sapiens, HeLa) it was > 100 µM; in [5] (Homo sapiens, Caco-2, 72 h), > 100 µM; in data set [6] (Homo sapiens, THP-1, 72 h) it was 33.9 ± 3.6 µM; in data set [7] (Homo sapiens, HuT78, 72 h), 17.3 ± 9.2 µM; in [8] (Homo sapiens, HL-60, 72 h), 44.3 ± 1.2 µM. Moreover, the IC50 in [1] (setting [10]) was 0.321 ± 0.0328 µM; in data set [2] (setting [11]), 0.985 ± 0.521 µM.

Take `COc1cc(-c2nc3ccc(C(=N)NC4CCCC4)cc3[nH]2)ccc1OCCNc1ccnc2cc(Cl)ccc12` [Compound 12d, 2-{3-methoxy-4-[2-(7-chloroquinolin-4-ylamino)ethoxy]phenyl}-N-cyclopentyl-1H-benzo[d]imidazole-5(6)-carboximidamide trihydrochloride]: the IC50 in data set [3] (setting [9]) was > 100 µM; in [4] (Homo sapiens, HeLa), > 100 µM; in [5] (Homo sapiens, Caco-2, 72 h) it was > 100 µM; in [6] (Homo sapiens, THP-1, 72 h), 100 µM; in [7] (Homo sapiens, HuT78, 72 h) it was 16.1 ± 4.7 µM; in data set [8] (Homo sapiens, HL-60, 72 h), 52.5 ± 5.1 µM. In addition, the IC50 in data set [1] (setting [10]) amounted to 0.191 ± 0.0115 µM; in [2] (setting [11]) it was 0.12 ± 0.0075 µM.

As to `N=C(NC1CCCC1)c1ccc2nc(-c3ccc(OCCCNc4ccnc5cc(Cl)ccc45)cc3)[nH]c2c1` [Compound 13d], the IC50 in [3] (setting [9]) was 83 ± 5.4 µM; in data set [4] (Homo sapiens, HeLa) it was > 100 µM; in data set [5] (Homo sapiens, Caco-2, 72 h) it was > 100 µM; in [6] (Homo sapiens, THP-1, 72 h) it was 14.4 ± 3.1 µM; in data set [7] (Homo sapiens, HuT78, 72 h), 15.2 ± 3 µM; in [8] (Homo sapiens, HL-60, 72 h) it was 18.2 ± 6.7 µM. In addition, the IC50 in [1] (setting [10]) worked out at 0.0574 ± 0.0019 µM; in data set [2] (setting [11]), 0.1983 ± 0.0001 µM.

Turning to `N=C(NC1CCCC1)c1ccc2nc(-c3ccc(OCCCNc4ccnc5cc(Cl)ccc45)c(Br)c3)[nH]c2c1` [Compound 14d], the IC50 is > 100 µM in [3] (setting [9]); > 100 µM in data set [4] (Homo sapiens, HeLa); > 100 µM in data set [5] (Homo sapiens, Caco-2, 72 h); 100 µM in data set [6] (Homo sapiens, THP-1, 72 h); 19.7 ± 4 µM in data set [7] (Homo sapiens, HuT78, 72 h); 24.4 ± 4.4 µM in data set [8] (Homo sapiens, HL-60, 72 h). Moreover, the IC50 amounted to 0.159 ± 0.0226 µM in [1] (setting [10]) and 0.451 ± 0.0403 µM in data set [2] (setting [11]).

For the compound “N-{2-[4-(1H-benzo[d]imidazole-2-yl)-2-bromophenoxy]propyl}-7-chloroquinolin-4-amine [Compound 14a]”, the IC50 in data set [3] (non-tumor cell line) worked out at 0.6 ± 0.6 µM; in data set [4] it was 1.2 ± 0.7 µM; in data set [5] (72 h), 5 ± 7.3 µM; in data set [6] (72 h) it was 5.1 ± 1.7 µM; in data set [7] (72 h), 1.7 ± 0.4 µM; in data set [8] (72 h), 0.7 ± 0.5 µM. Besides, the IC50 worked out at 0.0093 ± 0.0009 µM in data set [1] (chloroquine-sensitive strain, three days incubation, HRP2-ELISA, mean ± SD, n ≥ 2) and 0.013 ± 0.0019 µM in data set [2] (chloroquine-resistant strain, three days incubation, HRP2-ELISA, mean ± SD, n ≥ 2).

The record behind these values is PMC11243327, “Design, Synthesis, Antitumor, and Antiplasmodial Evaluation of New 7-Chloroquinoline–Benzimidazole Hybrids” (Molecules, 2024).
